For ten compounds, EC50 results are on record in patent US9586961B2, “Homopiperazine derivatives as protein tyrosine kinase inhibitors and pharmaceutical use thereof” (LEO PHARMA A/S, priority 2010, dated 2017).

Holding throughout (type): biochemical
Assay [1] addresses T1, JAK3 (Homo sapiens, UniProt P52333).
T1 construct: All four purified enzymes contain only the catalytic domain; His (N); purchased Carna Biosciences, Inc; host or cells: baculovirus expression system
Nature of the assay: JAK3 kinase assay (HTRF, inhibition of phosphorylation of a synthetic peptide). To be noted: catalytic domain, His-tag; 2 μM ATP (Km); read-out: JAK3 kinase inhibitory activity (EC50). The gist of the method: (§1)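 Baculovirus-expressed catalytic domains (GST-JAK1 aa 850-1154, GST-TYK2 aa 871-1187, His-JAK2, His-JAK3) phosphorylate 1 μM biotin-TK peptide 20-30 min at RT in 50 mM Hepes pH 7.0 with ATP at Km: JAK1 7 μM, JAK2 4 μM, JAK3 2 μM, TYK2 13 μM; 0.75% DMSO. Stopped with EDTA, HTRF read overnight.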
Background: Time-resolved FRET reads energy transfer from a long-lived donor to a nearby acceptor.

In assay [2] the target is T2, TYK2 (Homo sapiens, UniProt P29597).
T2 construct: JAK1 (aa 850-1154) and TYK2 (aa 871-1187) are expressed with an N-terminally fused GST-tag; GST (N); purchased Carna Biosciences, Inc; host or cells: baculovirus expression system
T2 sequence (P29597 871-1187): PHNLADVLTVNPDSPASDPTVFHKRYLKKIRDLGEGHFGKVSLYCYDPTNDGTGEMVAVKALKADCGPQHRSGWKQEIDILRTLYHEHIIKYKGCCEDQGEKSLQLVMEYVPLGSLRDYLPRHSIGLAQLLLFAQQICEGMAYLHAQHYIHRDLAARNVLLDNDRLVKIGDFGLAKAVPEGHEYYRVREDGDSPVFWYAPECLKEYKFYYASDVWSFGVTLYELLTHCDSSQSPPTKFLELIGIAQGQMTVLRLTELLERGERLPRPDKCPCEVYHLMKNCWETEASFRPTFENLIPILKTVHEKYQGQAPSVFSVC
Put plainly: TYK2 kinase assay (HTRF, inhibition of phosphorylation of a synthetic peptide). To be noted: catalytic domain aa 871-1187, GST-tag; 13 μM ATP (Km); read-out: TYK2 kinase inhibitory activity (EC50). The gist of the method:
as §1

Assay [3] concerns the target T3, JAK1 (Homo sapiens, UniProt P23458).
T3 construct: JAK1 (aa 850-1154) and TYK2 (aa 871-1187) are expressed with an N-terminally fused GST-tag; GST (N); purchased Carna Biosciences, Inc; host or cells: baculovirus expression system
Put plainly: JAK1 kinase assay (HTRF, inhibition of phosphorylation of a synthetic peptide). To be noted: catalytic domain aa 850-1154, GST-tag; 7 μM ATP (Km); read-out: JAK1 kinase inhibitory activity (EC50). In short, it runs like this: as §1

Assay [4] addresses T4, JAK2 (Homo sapiens, UniProt O60674).
T4 construct: All four purified enzymes contain only the catalytic domain; His (N); purchased Carna Biosciences, Inc; host or cells: baculovirus expression system
Nature of the assay: JAK2 kinase assay (HTRF, inhibition of phosphorylation of a synthetic peptide). To be noted: catalytic domain, His-tag; 4 μM ATP (Km); read-out: JAK2 kinase inhibitory activity (EC50). In short, it runs like this:
as §1

SMILES strings stand for the structures.

T4 sequence (O60674 849-1124 limits assumed): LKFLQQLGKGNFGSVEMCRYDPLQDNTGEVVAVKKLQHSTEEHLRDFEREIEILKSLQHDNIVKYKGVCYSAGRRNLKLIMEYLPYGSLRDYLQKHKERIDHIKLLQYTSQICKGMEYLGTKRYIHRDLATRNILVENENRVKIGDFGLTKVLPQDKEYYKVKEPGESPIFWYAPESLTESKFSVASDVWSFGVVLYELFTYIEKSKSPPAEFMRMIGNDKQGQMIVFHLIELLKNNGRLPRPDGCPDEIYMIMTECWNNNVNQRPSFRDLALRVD
T3 sequence (P23458 850-1154): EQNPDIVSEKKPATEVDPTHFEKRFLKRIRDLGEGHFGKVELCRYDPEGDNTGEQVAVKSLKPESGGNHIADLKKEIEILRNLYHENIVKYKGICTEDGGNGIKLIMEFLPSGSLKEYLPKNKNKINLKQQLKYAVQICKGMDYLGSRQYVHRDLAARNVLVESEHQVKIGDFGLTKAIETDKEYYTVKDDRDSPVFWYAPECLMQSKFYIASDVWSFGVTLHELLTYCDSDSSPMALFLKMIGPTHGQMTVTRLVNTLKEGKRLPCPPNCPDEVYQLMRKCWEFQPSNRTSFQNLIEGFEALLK
T1 sequence (P52333 822-1111 limits assumed): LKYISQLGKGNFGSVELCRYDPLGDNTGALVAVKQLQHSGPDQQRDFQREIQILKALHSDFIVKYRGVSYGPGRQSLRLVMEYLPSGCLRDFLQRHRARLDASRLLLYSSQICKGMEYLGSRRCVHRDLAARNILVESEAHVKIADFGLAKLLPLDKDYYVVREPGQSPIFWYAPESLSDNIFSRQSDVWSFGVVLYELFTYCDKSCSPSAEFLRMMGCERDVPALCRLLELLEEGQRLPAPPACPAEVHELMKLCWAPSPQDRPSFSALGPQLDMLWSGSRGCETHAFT

Broadly, the EC50 is the concentration needed to bring the measured effect to its halfway point. Regarding `O=C(c1cc2ccccc2s1)N1CCN(c2ncnc3[nH]ccc23)CCC12CC2` [Example 46, benzothiophen-2-yl-[6-(7H-pyrrolo[2,3-d]pyrimidin-4-yl)-6,9-diazaspiro[2.6]nonan-9-yl]methanone], the EC50 is over 1000 nM in assay [1], over 1000 nM in assay [2], 100 to 1000 nM in assay [3] and 100 to 1000 nM in assay [4].
As for `N#Cc1cccc(CC(=O)N2CCN(c3ncnc4[nH]ccc34)CCC23CC3)c1` [Example 47, 3-[2-oxo-2-[6-(7H-pyrrolo[2,3-d]pyrimidin-4-yl)-6,9-diazaspiro[2.6]nonan-9-yl]ethyl]benzonitrile], the EC50 in assay [1], in assay [2], in assay [3] and in assay [4] was over 1000 nM each time.
As for `N#CCc1ccccc1C(=O)N1CCN(c2ncnc3[nH]ccc23)CCC12CC2` [Example 48, 2-[2-[6-(7H-pyrrolo[2,3-d]pyrimidin-4-yl)-6,9-diazaspiro[2.6]nonane-9-carbonyl]phenyl]acetonitrile], the EC50 in assay [1], in assay [2], in assay [3] and in assay [4] was over 1000 nM throughout.
For the compound `N#CCCC(=O)N1CCN(c2ncnc3[nH]ccc23)CCC12CC2` [Example 49, 4-oxo-4-[6-(7H-pyrrolo[2,3-d]pyrimidin-4-yl)-6,9-diazaspiro[2.6]nonan-9-yl]butanenitrile], the EC50 in assay [1] is 100 to 1000 nM; in assay [2] it was over 1000 nM; in assay [3], 100 to 1000 nM; in assay [4] it was 100 to 1000 nM.
Regarding `O=C(c1ccc(S(=O)(=O)NCCc2cccs2)cc1)N1CCN(c2ncnc3[nH]ccc23)CC2(CC2)C1` [Example 50, 4-[5-(7H-pyrrolo[2,3-d]pyrimidin-4-yl)-5,8-diazaspiro[2.6]nonane-8-carbonyl]-N-[2-(2-thienyl)ethyl]benzenesulfonamide], the EC50 in assay [1] was 100 to 1000 nM; in assay [2], over 1000 nM; in assay [3] it was 100 to 1000 nM; in assay [4], 100 to 1000 nM.
Turning to `N#Cc1ccc(C(=O)N2CCN(c3ncnc4[nH]ccc34)CC3(CC3)C2)s1` [Example 51, 5-[5-(7H-pyrrolo[2,3-d]pyrimidin-4-yl)-5,8-diazaspiro[2.6]nonane-8-carbonyl]thiophene-2-carbonitrile], the EC50 in assay [1] is under 100 nM; in assay [2] it was 100 to 1000 nM; in assay [3] it was under 100 nM; in assay [4], under 100 nM.
Consider `COc1cc(S(N)(=O)=O)ccc1C(=O)N1CCN(c2ncnc3[nH]ccc23)CC2(CC2)C1` [Example 52, 3-methoxy-4-[5-(7H-pyrrolo[2,3-d]pyrimidin-4-yl)-5,8-diazaspiro[2.6]nonane-8-carbonyl]benzenesulfonamide], for which the EC50 is 100 to 1000 nM in assay [1], over 1000 nM in assay [2], 100 to 1000 nM in assay [3] and under 100 nM in assay [4].
Turning to `COc1cc(C(=O)N2CCN(c3ncnc4[nH]ccc34)CC3(CC3)C2)ccc1S(N)(=O)=O` [Example 53, 2-methoxy-4-[5-(7H-pyrrolo[2,3-d]pyrimidin-4-yl)-5,8-diazaspiro[2.6]nonane-8-carbonyl]benzenesulfonamide], the EC50 in assay [1] was over 1000 nM; in assay [2], over 1000 nM; in assay [3] it was 100 to 1000 nM; in assay [4], 100 to 1000 nM.
As for `NS(=O)(=O)c1ccc(/C=C/C(=O)N2CCN(c3ncnc4[nH]ccc34)CC3(CC3)C2)cc1` [Example 54, 4-[(E)-3-oxo-3-[5-(7H-pyrrolo[2,3-d]pyrimidin-4-yl)-5,8-diazaspiro[2.6]nonan-8-yl]prop-1-enyl]benzenesulfonamide], the half-maximal effective concentration (EC50) is 100 to 1000 nM in assay [1], 100 to 1000 nM in assay [2], under 100 nM in assay [3] and under 100 nM in assay [4].
Take `CS(=O)(=O)c1ccc(CC(=O)N2CCN(c3ncnc4[nH]ccc34)CC3(CC3)C2)cc1` [Example 55, 2-(4-methylsulfonylphenyl)-1-[5-(7H-pyrrolo[2,3-d]pyrimidin-4-yl)-5,8-diazaspiro[2.6]nonan-8-yl]ethanone]: the EC50 in assay [1] is 100 to 1000 nM; in assay [2] it was over 1000 nM; in assay [3], under 100 nM; in assay [4], under 100 nM.
